Laboratory results: patent publication US20030100757A1, “2-(4-aryl or heteroaryl-piperazin-1-ylmethyl)-1H-indole derivatives interacting with the dopamine D4 receptor” (Pfizer Inc., priority 2001, published 2003)

SMILES	melting point
Oc1ccc2[nH]c(CN3CCN(c4cccc(C(F)(F)F)c4)CC3)cc2c1 [Example 4, 2-[4-(3-Trifluoromethyl-phenyl)-piperazin-1-ylmethyl]-1H-indol-5-ol]	188 to 190 °C
FC(F)(F)c1cccc(N2CCN(Cc3cc4ccccc4[nH]3)CC2)c1 [Example 5, 2-[4-(3-Trifluoromethyl-phenyl)-piperazin-1-ylmethyl]-1 H-indole]	192 to 194 °C
O=C(c1cc2cc(F)ccc2[nH]1)N1CCN(c2ccccc2[N+](=O)[O-])CC1 [Example 7, (5-Fluoro-1H-indol-2-yl)-[4-(2-nitro-phenyl)-piperazin-1-yl]-methanone]	184 to 188 °C
O=C(c1cc2cc(F)ccc2[nH]1)N1CCN(c2cccc(C(F)(F)F)c2)CC1 [Example 8, (5-Fluoro-1H-indol-2-yl)-[4-(3-trifluoromethyl-phenyl)-piperazin-1-yl]-methanone]	198 °C
c1ccc2[nH]c(CN3CCN(c4nsc5ccccc45)CC3)cc2c1 [Example 9, 3-[4-(1H-Indol-2-ylmethyl)-piperazin-1-yl]-benzo[d]isothiazole]	150 to 152 °C

More lines, now with the values ahead:

melting point	SMILES
196 to 197 °C	Fc1ccc2[nH]c(CN3CCN(c4cccc(C(F)(F)F)c4)CC3)cc2c1 [Example 10, 5-Fluoro-2-[4-(3-trifluoromethyl-phenyl)-piperazin-1-ylmethyl]-1H-indole]
238 to 239 °C	c1ccc2[nH]c(CN3CCN(c4cccc5ccccc45)CC3)cc2c1 [Example 11, 2-(4-Naphthalen-1-yl-piperazin-1-ylmethyl)-1H-indole]
210 to 211 °C	O=[N+]([O-])c1ccccc1N1CCN(Cc2cc3ccccc3[nH]2)CC1 [Example 12, 2-[4-(2-Nitro-phenyl)-piperazin-1-ylmethyl]-1H-indole]
236 °C	O=[N+]([O-])c1ccccc1N1CCN(Cc2cc3cc(F)ccc3[nH]2)CC1 [Example 13, 5-Fluoro-2-[4-(2-nitro-phenyl)-piperazin-1-ylmethyl]-1H-indole]
249 to 250 °C	Fc1ccc2[nH]c(CN3CCN(c4cccc5ccccc45)CC3)cc2c1 [Example 14, 5-Fluoro-2-(4-naphthalen-1-yl-piperazin-1-ylmethyl)-1H-indole]
199 °C	Fc1ccc2[nH]c(CN3CCN(c4ncccn4)CC3)cc2c1 [Example 17, 5-Fluoro-2-(4-pyrimidin-2-yl-piperazin-1-ylmethyl)-1H-indole]
214 to 218 °C	O=C(c1cc2cc(F)ccc2[nH]1)N1CCN(c2ccccn2)CC1 [Example 18, (5-Fluoro-1H-indol-2-yl)-(4-pyridin-2-yl-piperazin-1-yl)-methanone]
